Experimental data as given in patent US8017612B2, “Piperazine compound and use thereof as a HCV polymerase inhibitor” (priority 2006, dated 2011).

Legend:
[1] = biological target: T1, HCV polymerase (NS5B) type 1a (Hepatitis C virus genotype 1a, UniProt P26664); experiment: Assay of enzyme (HCV polymerase) inhibitory activity, type 1a enzyme; type: biochemical, HCV type 1a (cloned from the blood of patients); conditions: HCV polymerase inhibitory activity (IC50), 1a, type 1a enzyme 1.5 μg/ml, 25° C., 60 min
T1 construct: made in house; host or cells: Escherichia coli (by the 'similar method' of the 1b enzyme)
Procedure, shortened: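 Patient-derived type 1a NS5B (C-terminal 47-aa deletion, His-tagged, E. coli-expressed) at 1.5 μg/ml was reacted with 5 μg/ml 3′UTR-containing substrate RNA, 50 μM ATP/GTP/CTP, 2 μM UTP plus [3H]UTP, pH 7.5, 25° C for 60 min. TCA-precipitated RNA radioactivity was counted; IC50 from ± compound.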

[2] = biological target: T2, HCV polymerase (NS5B) type 1b (Hepatitis C virus genotype 1b, UniProt P26663); experiment: Assay of enzyme (HCV polymerase) inhibitory activity, type 1b enzyme; type: biochemical, HCV BK strain (type 1b); conditions: HCV polymerase inhibitory activity (IC50), 1b, type 1b enzyme 0.5 μg/ml, 25° C., 60 min
T2 construct: a region encoding NS5B (J Virol 1991 March, 65(3), 1105-13, 544 amino acids after deletion of 47 amino acids on the C-terminal); 6xHis (C); made in house; host or cells: Escherichia coli
Procedure, shortened: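 NS5B from HCV BK strain (type 1b), C-terminal 47 aa deleted, C-terminal His6-tagged, E. coli-expressed, 0.5 μg/ml, with ~450 nt substrate RNA carrying the 3′ UTR (polyU, 3′X) at 5 μg/ml. Incubation 60 min at 25 °C with 50 μM ATP/GTP/CTP, 2 μM UTP plus [3H]UTP, pH 7.5 Tris.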

| SMILES | IC50 [1] | IC50 [2] |
| --- | --- | --- |
| CN(C)c1ccc(CNC(=O)[C@H]2CN(c3cnc(C(=O)O)cn3)CCN2S(=O)(=O)c2ccc(OC(F)(F)F)cc2)cc1 [Example 399, (R)-3-(4-dimethylamino-benzylcarbamoyl)-4-(4-trifluoromethoxy-benzenesulfonyl)-3,4,5,6-tetrahydro-2H-[1,2′]bipyrazinyl-5′-carboxylic acid] | < 100 nM | < 100 nM |
| CC(=O)N1CCN(S(=O)(=O)c2ccc(C3CC3)cc2)[C@@H](C(=O)NCc2ccc(C(C)C)cc2)C1 [Example 400, (R)-4-acetyl-1-(4-cyclopropyl-benzenesulfonyl)-piperazine-2-carboxylic acid 4-isopropyl-benzylamide] | < 100 nM | < 100 nM |
| Cc1nc(N2CCN(S(=O)(=O)c3ccc(OC(F)(F)F)cc3)[C@@H](C(=O)NCc3ccccc3)C2)sc1C(=O)O [Example 401, 2-[(R)-3-benzylcarbamoyl-4-(4-trifluoromethoxy-benzenesulfonyl)-piperazin-1-yl]-4-methyl-thiazole-5-carboxylic acid] | > 1000 nM | 100 to 1000 nM |
| CC(=O)N1CCN(S(=O)(=O)c2ccc(C(C)C)cc2)[C@@H](C(=O)NCCN2CCCCC2)C1 [Example 402, (R)-4-acetyl-1-(4-isopropyl-benzenesulfonyl)-piperazine-2-carboxylic acid (2-piperidin-1-yl-ethyl)-amide] | > 1000 nM | > 1000 nM |
| CC(=O)N1CCN(S(=O)(=O)c2ccc(C(C)C)cc2)[C@@H](C(=O)NCCN2CCOCC2)C1 [Example 403, (R)-4-acetyl-1-(4-isopropyl-benzenesulfonyl)-piperazine-2-carboxylic acid (2-morpholin-4-yl-ethyl)-amide] | > 1000 nM | > 1000 nM |
| CC(=O)N1CCN(S(=O)(=O)c2ccc(C(C)C)cc2)[C@@H](C(=O)NCCCN2CCOCC2)C1 [Example 404, (R)-4-acetyl-1-(4-isopropyl-benzenesulfonyl)-piperazine-2-carboxylic acid (3-morpholin-4-yl-propyl)-amide] | > 1000 nM | > 1000 nM |
| CC(=O)N1CCN(S(=O)(=O)c2ccc(C(C)C)cc2)[C@@H](C(=O)NCCCN2CCCC2)C1 [Example 405, (R)-4-acetyl-1-(4-isopropyl-benzenesulfonyl)-piperazine-2-carboxylic acid (3-pyrrolidin-1-yl-propyl)-amide] | > 1000 nM | > 1000 nM |
| CCCc1ccc(CNC(=O)[C@H]2CN(c3nc(C)c(C(N)=O)s3)CCN2S(=O)(=O)c2ccc(OC(F)(F)F)cc2)cc1 [Example 406, (R)-4-(5-carbamoyl-4-methyl-thiazol-2-yl)-1-(4-trifluoromethoxy-benzenesulfonyl)-piperazine-2-carboxylic acid 4-propyl-benzylamide] | < 100 nM | < 100 nM |
| CN(C)c1ccc(CNC(=O)[C@H]2CN(c3cnc(C(=O)O)cn3)CCN2S(=O)(=O)c2ccc(OC(F)(F)F)cc2)cn1 [Example 407, (R)-3-[(6-dimethylamino-pyridin-3-ylmethyl)-carbamoyl]-4-(4-trifluoromethoxy-benzenesulfonyl)-3,4,5,6-tetrahydro-2H-[1,2′]bipyrazinyl-5′-carboxylic acid] | 100 to 1000 nM | < 100 nM |
| CC(C)c1ccc(CNC(=O)[C@H]2CN(c3cnc(C(=O)O)cn3)CCN2S(=O)(=O)c2ccc(OC(F)(F)F)cc2)cn1 [Example 408, (R)-3-[(6-isopropyl-pyridin-3-ylmethyl)-carbamoyl]-4-(4-trifluoromethoxy-benzenesulfonyl)-3,4,5,6-tetrahydro-2H-[1,2′]bipyrazinyl-5′-carboxylic acid] | < 100 nM | < 100 nM |
| O=C(NCc1ccc(OC(F)(F)F)cc1)[C@H]1CN(C(=O)Cc2ccncc2)CCN1S(=O)(=O)c1ccc(OC(F)(F)F)cc1 [Example 409, (R)-4-(2-pyridin-4-yl-acetyl)-1-(4-trifluoromethoxy-benzenesulfonyl)-piperazine-2-carboxylic acid 4-trifluoromethoxy-benzylamide] | 100 to 1000 nM | 100 to 1000 nM |
| CN(C)c1ccc(CNC(=O)[C@H]2CN(C(=O)Cc3ccncc3)CCN2S(=O)(=O)c2ccc(OC(F)(F)F)cc2)cc1 [Example 410, (R)-4-(2-pyridin-4-yl-acetyl)-1-(4-trifluoromethoxy-benzenesulfonyl)-piperazine-2-carboxylic acid 4-dimethylamino-benzylamide] | < 100 nM | 100 to 1000 nM |
| CCCc1ccc(CNC(=O)[C@H]2CN(C(=O)Cc3ccncc3)CCN2S(=O)(=O)c2ccc(OC(F)(F)F)cc2)cc1 [Example 411, (R)-4-(2-pyridin-4-yl-acetyl)-1-(4-trifluoromethoxy-benzenesulfonyl)-piperazine-2-carboxylic acid 4-propyl-benzylamide] | < 100 nM | < 100 nM |
| O=C(NCc1ccc(C2CC2)cc1)[C@H]1CN(C(=O)Cc2ccncc2)CCN1S(=O)(=O)c1ccc(OC(F)(F)F)cc1 [Example 412, (R)-4-(2-pyridin-4-yl-acetyl)-1-(4-trifluoromethoxy-benzenesulfonyl)-piperazine-2-carboxylic acid 4-cyclopropyl-benzylamide] | < 100 nM | 100 to 1000 nM |
| CCCc1ccc(CNC(=O)[C@H]2CN(c3ccc(C(=O)O)cc3)CCN2S(=O)(=O)c2ccc(OC(F)(F)F)cc2)cc1 [Example 413, 4-[(R)-3-(4-propyl-benzylcarbamoyl)-4-(4-trifluoromethoxy-benzenesulfonyl)-piperazin-1-yl]-benzoic acid] | 100 to 1000 nM | < 100 nM |
| CCCc1ccc(CNC(=O)[C@H]2CN(c3nc(C)c(C(=O)O)s3)CCN2S(=O)(=O)c2ccc(CC)cc2)cc1 [Example 414, 2-[(R)-4-(4-ethyl-benzenesulfonyl)-3-(4-propyl-benzylcarbamoyl)-piperazin-1-yl]-4-methyl-thiazole-5-carboxylic acid] | < 100 nM | < 100 nM |
| CCCc1ccc(CNC(=O)[C@H]2CN(c3cnc(C(=O)O)cn3)CCN2S(=O)(=O)c2ccc(CC)cc2)cc1 [Example 415, (R)-4-(4-ethyl-benzenesulfonyl)-3-(4-propyl-benzylcarbamoyl)-3,4,5,6-tetrahydro-2H-[1,2′]bipyrazinyl-5′-carboxylic acid] | < 100 nM | < 100 nM |
| Cc1nc(N2CCN(S(=O)(=O)c3ccc(OC(F)(F)F)cc3)[C@@H](C(=O)NCc3ccc(N4CCCC4)cc3)C2)sc1C(=O)O [Example 416, 4-methyl-2-[(R)-3-(4-pyrrolidin-1-yl-benzylcarbamoyl)-4-(4-trifluoromethoxy-benzenesulfonyl)-piperazin-1-yl]-thiazole-5-carboxylic acid] | 100 to 1000 nM | < 100 nM |
| CCCc1ccc(CNC(=O)[C@H]2CN(c3ccc(C(=O)O)nn3)CCN2S(=O)(=O)c2ccc(OC(F)(F)F)cc2)cc1 [Example 417, 6-[(R)-3-(4-propyl-benzylcarbamoyl)-4-(4-trifluoromethoxy-benzenesulfonyl)-piperazin-1-yl]-pyridazine-3-carboxylic acid] | < 100 nM | < 100 nM |
| Cc1nc(N2CCN(S(=O)(=O)c3ccc(OC(F)(F)F)cc3)[C@@H](C(=O)NCCc3ccccc3)C2)sc1C(=O)O [Example 418, 4-methyl-2-[(R)-3-phenethylcarbamoyl-4-(4-trifluoromethoxy-benzenesulfonyl)-piperazin-1-yl]-thiazole-5-carboxylic acid] | > 1000 nM | > 1000 nM |
| CC(=O)N1CCN(S(=O)(=O)c2ccc(Br)cc2F)[C@@H](C(=O)NCc2ccc(C(C)C)cc2)C1 [Example 419, (R)-4-acetyl-1-(4-bromo-2-fluoro-benzenesulfonyl)-piperazine-2-carboxylic acid 4-isopropyl-benzylamide] | 100 to 1000 nM | 100 to 1000 nM |
| COC(=O)c1nc(Cl)c(N2CCN(S(=O)(=O)c3ccc(C(F)(F)F)cc3)[C@@H](C(=O)NCc3ccc(C(C)C)cc3)C2)nc1N [Example 420, (R)-6′-amino-3′-chloro-3-(4-isopropyl-benzylcarbamoyl)-4-(4-trifluoromethyl-benzenesulfonyl)-3,4,5,6-tetrahydro-2H-[1,2′]bipyrazinyl-5′-carboxylic acid methyl ester] | > 1000 nM | > 1000 nM |
| COC(=O)c1nc(Cl)c(N2CCN(S(=O)(=O)c3ccc(C(F)(F)F)cc3)[C@@H](C(=O)NCc3ccc(C(C)C)cc3)C2)nc1Br [Example 421, (R)-6′-bromo-3′-chloro-3-(4-isopropyl-benzylcarbamoyl)-4-(4-trifluoromethyl-benzenesulfonyl)-3,4,5,6-tetrahydro-2H-[1,2′]bipyrazinyl-5′-carboxylic acid methyl ester] | > 1000 nM | > 1000 nM |
| Cc1nc(N2CCN(S(=O)(=O)c3ccc(C(F)(F)F)cc3)[C@@H](C(=O)NCc3ccc(C(C)C)cc3)C2)c(C)nc1C(=O)O [Example 422, (R)-3-(4-isopropyl-benzylcarbamoyl)-3′,6′-dimethyl-4-(4-trifluoromethyl-benzenesulfonyl)-3,4,5,6-tetrahydro-2H-[1,2′]bipyrazinyl-5′-carboxylic acid] | > 1000 nM | > 1000 nM |
